One assay has as its system HT1080-DHDO14 tumor. The assay can be described thus: HGind-H control of suicide gene in animals, HT1080 vs HT1080-DHDO14 tumors with GCV. The class given is in vivo, Balb/c nude crlj. To be noted: GCV 50 mg/kg per day i.p. The procedure: (1) 18 Balb/c nude crlj which are male and 5 weeks old were purchased. HT1080 and HT-1080-DHDO14 cells were resuspended with PBS and injected at 1.5×10^6 cells/side*mouse (volume: 100 μl), where HT1080 was injected into the left backs of the mice and HT1080-DHDO14 was injected into the right backs of the mice.
(2) The mice were divided into two groups, the control group (n=8) was injected with normal saline, and the experimental group (n=10) was injected with ganciclovir (GCV).
(3) From the 5th to the 12th day of tumor model construction, each mouse in the control group was intraperitoneally injected with normal saline at 100 μl/day, and each mouse in the experimental group was intraperitoneally injected with GCV at 50 mg/kg per day. Starting from the 8th day, the long and short diameters of tumors of the mice were measured every day.
(4) The mice were killed on the 14th day and the tumors of the mice were weighed.

Another assay deals with HEK293FT cells. The assay can be described thus: HGind-H composed of two plasmids transfected into HEK293FT cells, D2eGFP fluorescence intensity after D-2-HG addition. The class given is cell-based. To be noted: ratio 0.4.

Description for HEK293FT cells: (3) The plasmid was transfected into HEK293FT cells with lipofectamine 3000; a transfection plasmid combination 1 was pCDNA3.1(+)-DhdR-KRAB and pCDNA3.1(+)-DhdO10-D2eGFP or a plasmid combination 2 was pCDNA3.1(+)-KRAB-DhdR and pCDNA3.1(+)-DhdO10-D2eGFP; 3*105/well of cells were seeded in a 12-well plate, pcDNA3.1(+)-DhdO10-D2eGFP was added at lug/well, and the ratio of the recombinant transcriptional repressor plasmid to PcDNA3.1(+)-DhdO10-D2eGFP was 0:1, 1:1, 3:1.
(4) On the next day, D-2-HG was added at concentrations of 0 mM, 1 mM, 5 mM, and 10 mM; 64 h after transfection, a fluorescence microscope was used to take pictures, the supernatant was aspirated, a fluorescence microplate reader measured fluorescence intensities, and results were shown in FIG. 2.
(1) pCDNA3.1(+)-DhdR-KRAB and pCDNA3.1(+)-DhdO10-D2eGFP were selected, and then transfected using liposomes as above; the ratio of the two plasmids was set to 0, 0.1, 0.3, 0.4, 0.5, 0.75, 1.
(2) On the next day, D-2-HG was added at concentrations of 0 mM and 5 mM; and 64 h after transfection, a fluorescence microscopy was used to take pictures, the supernatant was aspirated, and a fluorescence microplate reader measured a fluorescence intensity. […]
(2) On the next day, D-2-HG was added at concentrations of 0, 0.5, 1, 5, 10, and 20 mM; and a fluorescence microplate reader measured a fluorescence intensity.

Consider `Nc1nc(O)c2ncn(COC(CO)CO)c2n1` [GCV, ganciclovir], for which the “size of HT1080-DHDO14 tumor vs HT1080 tumor on the left side” value in the assay with HT1080-DHDO14 tumor (day 5 to 12) is given as “significantly smaller”. Further, the “volume of the HT1080-DHDO14 tumor vs the other three groups” value in the assay on HT1080-DHDO14 tumor (later stage of measurement) is “significantly less”. The “weight of the HT1080-DHDO14 tumor vs the other 3 groups” value in the assay with HT1080-DHDO14 tumor (mice killed on the 14th day) is “significantly less”.

Regarding `O=C(O)CC[C@@H](O)C(=O)O` [D-2-HG, D-2-hydroxyglutarate], in the assay on HEK293FT cells (0.5 mM D-2-HG vs 0 mM group, pCDNA3.1(+)-DhdR-KRAB and DhdO7-D2eGFP), the “fluorescence intensity (D2eGFP expression)” value is listed as “significant difference”. In addition, the “fluorescence intensity (D2eGFP expression), dose response” value in the assay with HEK293FT cells (D-2-HG 0, 0.5, 1, 5, 10, 20 mM) was “as the concentration increases, the fluorescence intensity becomes larger and larger”.

The values are drawn from patent US20260103726A1, “CONTROL SYSTEM FOR INDUCING TRANSGENE EXPRESSION BY MEANS OF D-2-HG, AND CONSTRUCTION METHOD THEREFOR AND USES THEREOF” (priority 2023, published 2026).
